Key:
GAA [1] = settings: Pompe cells model expressing mutant forms of GAA, reference [9]; cited from earlier work
human GAA (hGAA) [2] = biological target: T1, human GAA (hGAA) (Homo sapiens, UniProt P10253); experiment: Mature lysosomal 70 KDa hGAA in tissues (uptake) by Western blot, wild-type mice injected with AAV-GAA plus chaperones; assay type: in vivo; set-up: expressed in transfected cells; settings: for GAA uptake in tissues: tissues overall (FIG. 3)
Method: Six-eight-week-old C57Bl/6 male mice were divided into 9 groups of five mice. 5×10^11 vg/kg of AAV8-sp7-Δ8-co1GAA vectors were administered at day 0 intravenously in awake, restrained animals via tail vein injection. Two months after the AAV treatment, 7 pharmacological chaperone molecules or combination of them were orally administered to the mice using a “3 on/4 off” regimen (three consecutive days of treatment followed by four consecutive days with drinking water only) for four weeks. At the end of this four-week period, all mice were sacrificed and different organs and muscles were collected (liver, heart, brain, spinal cord, diaphragm, quadriceps, and triceps). C57Bl/6 mice were injected either with PBS (CTRL) or with 5×10^11 vg/kg of the AAV8 vector expressing secretable therapeutic hGAA polypeptide (AAV-GAA).
Two months after vector injection, mice were treated for four weeks with 100 mg/kg/die of duvoglustat (DNJ, AX61Q1, Interchim, San Diego, Calif.), 100 mg/kg/die of duvoglustat combined with 25 mg/kg/die of ambroxol (DNJ-ABX), 25 mg/kg/die of ambroxol hydrochloride (ABX, A9797, Sigma, Saint Louis, Mo.), 2 mg/kg/die of voglibose (VOGLIBOSE, S4101, Selleckchem, Houston, Tex.), 20 mg/kg/die of acarbose (ACARBOSE, S1271, Selleckchem, Houston, Tex.), 2 mg/kg/die of miglitol (MIGLITOL, S2589, Selleckchem, Houston, Tex.) or 4200 mg/kg/die of N-acetyl-cysteine (NAC, A7250, Sigma, Saint Louis, Mo.) dissolved in drinking water (FIG. 1). One group received normal drinking water (WATER).
Three months after vector injection, mice were sacrificed and the levels of human GAA (hGAA) in blood and tissues were analyzed by Western blot.
At the end of the study (3 months post-injection), animals were sacrificed by CO2 inhalation. Liver, heart, brain, spinal cord, diaphragm, quadriceps, and triceps were collected and snap-frozen in liquid nitrogen for biochemical analysis. Frozen samples were stored at −80° C. until processing.
Mouse tissues were collected at sacrifice and homogenized in PBS. Protein concentration was determined using the BCA Protein Assay (Thermo Fisher Scientific, Waltham, Mass.). Plasma and tissues samples were diluted 1:20 in water (except for brain, where samples were diluted 1:200). SDS-page electrophoresis was performed in a 4-12% gradient polyacrylamide gel. After transfer, the membrane was blocked with Odyssey buffer (Li-Cor Biosciences, Lincoln, Nebr.), incubated with an anti-human GAA antibody (rabbit monoclonal antibody, Abcam, Cambridge, UK) and an anti-GAPDH antibody (rabbit polyclonal antibodies, PA1-988, Life Technologies, Carlsbad, Calif.). The membrane was washed and incubated with the appropriate secondary antibody (Li-Cor Biosciences, Lincoln, Nebr.), and visualized by Odyssey imaging system (925-32213, Li-Cor Biosciences, Lincoln, Nebr.). To measure the uptake of GAA in tissues, the 70 KDa band (mature form), visualized by the anti-GAA antibody was quantified and normalized to the levels of expression of GAPDH used as loading control.

GAA [3] = biological target: GAA (Homo sapiens, UniProt P10253); experiment: GAA activity in tissues (4-MU substrate cleavage) of GAA KO mice injected with AAV-hGAA plus chaperones; assay type: in vivo; settings: for GAA activity (uptake) in tissues: tissues overall (FIG. 7)
Method: (§1) Three to four-month-old GAA deficient male mice were divided into six groups and one control group was composed by wild-type littermates. Each group was composed by eight mice in maximum two cages, to facilitate the administration of the drugs dissolved in drinking water. Starting from day 0, GAA deficient (KO) mice (mouse strain B6; 129-Gaa^tm1Rabn/J) were injected with AAV-hGAA at 1×10^11 vg/kg via tail vein injection in combination with the different pharmacological chaperones (PC) dissolved in the drinking water. In parallel, untreated GAA wild-type mice and two groups of GAA deficient mice injected with the AAV-hGAA vector or PBS were used as controls. PC molecules were orally administered to the mice, using a “3 days on/4 days off” regimen, consisting in three consecutive days of treatment followed by four consecutive days with drinking water only, as described in FIG. 4. Mice receive 100 mg/kg/die of duvoglustat (DNJ, AX61Q1, Interchim, San Diego, Calif.), 100 mg/kg/die of duvoglustat combined with 25 mg/kg/die of ambroxol hydrochloride (DNJ-ABX), 25 mg/kg/die of ambroxol hydrochloride (ABX, A9797, Sigma, Saint Louis, Mo.), 4200 mg/kg/die of N-acetyl-cysteine (NAC, A7250, Sigma, Saint Louis, Mo.) dissolved in drinking water (FIG. 4) or normal drinking water.
Circulating hGAA activity and levels were monitored over a period of two months. Mice were sacrificed and different organs and muscles were collected (heart, diaphragm, quadriceps, and triceps) to measure the uptake of GAA in tissues and the glycogen clearance.
At the end of the study (2 months post-injection), animals were sacrificed by CO2 inhalation. Heart, diaphragm, quadriceps, and triceps were collected and snap-frozen in liquid nitrogen for biochemical analysis. Frozen samples are stored at −80° C. until processing.
GAA activity was assessed in plasma and tissue by measurement of 4-methyl-umbelliferyl-α-d-glucoside (4-MU, Sigma, St Louis, Mo.) cleavage at pH 4.3. To this end, mouse tissues collected at sacrifice was homogenized in PBS. Insoluble proteins were removed by centrifugation. The protein content of the resultant lysates was quantified via the BCA Protein Assay (Thermo Fisher Scientific, Waltham, Mass.). Plasma and tissues samples were diluted in water and 10 μL of each sample were incubated with 20 μL of reconstituted substrate for 1 hr at 37° C. After stopping the reaction, the released fluorescence was measured with EN-SPIRE® fluorimeter (Perkin Elmer, Waltham, Mass.). GAA activity was normalized against total protein content or plasma volume.

human GAA (hGAA) [4] = biological target: T1, human GAA (hGAA); experiment: Circulating hGAA levels by Western blot in GAA KO mice injected with AAV-hGAA plus chaperones; assay type: in vivo; settings: AAV-hGAA 1×10^11 vg/kg, two months after vector injection (FIG. 5)
Method: as §1
Circulating hGAA activity and levels were monitored over a period of two months. […]

human GAA (hGAA) [5] = biological target: T1, human GAA (hGAA); experiment: Circulating hGAA levels by Western blot in wild-type mice injected with AAV-GAA and given chaperones in drinking water; assay type: in vivo; settings: wild-type C57Bl/6 mice, AAV-GAA 5×10^11 vg/kg, three months after vector injection, vs AAV-GAA mice on normal water (FIG. 2)
Method: Six-eight-week-old C57Bl/6 male mice were divided into 9 groups of five mice. 5×10^11 vg/kg of AAV8-sp7-Δ8-co1GAA vectors were administered at day 0 intravenously in awake, restrained animals via tail vein injection. Two months after the AAV treatment, 7 pharmacological chaperone molecules or combination of them were orally administered to the mice using a “3 on/4 off” regimen (three consecutive days of treatment followed by four consecutive days with drinking water only) for four weeks. At the end of this four-week period, all mice were sacrificed and different organs and muscles were collected (liver, heart, brain, spinal cord, diaphragm, quadriceps, and triceps). C57Bl/6 mice were injected either with PBS (CTRL) or with 5×10^11 vg/kg of the AAV8 vector expressing secretable therapeutic hGAA polypeptide (AAV-GAA). […]
Three months after vector injection, mice were sacrificed and the levels of human GAA (hGAA) in blood and tissues were analyzed by Western blot. […]
Mouse tissues were collected at sacrifice and homogenized in PBS. Protein concentration was determined using the BCA Protein Assay (Thermo Fisher Scientific, Waltham, Mass.). […] To measure the uptake of GAA in tissues, the 70 KDa band (mature form), visualized by the anti-GAA antibody was quantified and normalized to the levels of expression of GAPDH used as loading control.

[6] = general statement, no test described; cited from earlier work

## Nc1c(Br)cc(Br)cc1CN[C@H]1CC[C@H](O)CC1 [ABX, ambroxol]
GAA [1]
  tissue uptake of GAA, especially in a tissue of the nervous system: did not increase
Human GAA (hGAA) [2]
  GAA uptake in tissues: increase
GAA [3]
  GAA activity (uptake) in tissues: No significant differences

## OC[C@H]1NC[C@H](O)[C@@H](O)[C@@H]1O [DNJ, 1-deoxynojirimycin]
Human GAA (hGAA) [4]
  levels of circulating hGAA: significant increase
Human GAA (hGAA) [2]; Western blot (FIG. 3B), significance reached in triceps only for DNJ group
  mature lysosomal form of hGAA in triceps: increased levels
Human GAA (hGAA) [2]; Western blot (FIG. 3F)
  mature lysosomal form of hGAA in spinal cord: increased levels
Human GAA (hGAA) [2]; Western blot band density normalized to GAPDH (FIG. 3C)
  mature lysosomal form of hGAA in diaphragm: increased levels
Human GAA (hGAA) [2]
  GAA uptake in tissues: increase
Human GAA (hGAA) [5]
  levels of circulating hGAA: significant increase
GAA [3]; two months (FIG. 7A), significance only with both DNJ and ABX
  GAA activity in heart: increased enzyme activity
GAA [3]; two months (FIG. 7B), significance only with both DNJ and ABX
  GAA activity in diaphragm: increased enzyme activity
GAA [3]; two months (FIG. 7C), significance only with both DNJ and ABX
  GAA activity in triceps: increased enzyme activity
GAA [3]; two months (FIG. 7D), significance only with both DNJ and ABX
  GAA activity in quadriceps: increased enzyme activity

## CC(=O)N[C@@H](CS)C(=O)O [NAC, N-acetylcysteine]
Human GAA (hGAA) [2]
  GAA uptake in tissues: increase
Human GAA (hGAA) [5]
  levels of circulating hGAA: significant increase
GAA [3]
  GAA activity (uptake) in tissues: No significant differences

## recombinant hGAA (ERT): recombinant GAA polypeptide alglucosidase alfa, marketed by Genzyme as Lumizyme or Myozyme
[6]
  half-life: relatively short

From US20220331408A1, “TREATMENT OF GLYCOGEN STORAGE DISEASE (GSD)” (GENETHON, priority 2019, published 2022)
